The source made the active and inactive calls.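 Rule for the calls: active = mean IC50 for reducing PEG3 promoter reporter signal at or below a set limit, with IC50 above the limit in both counter screens; inactive = the rest, including counter screen hits.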

IC50 data for 25 compounds are collected here from PubChem BioAssay AID624167 (Sanford-Burnham Center for Chemical Genomics, 2012).

Assay [1] relates to PEG-3. Description: inhibition of PEG-3 promoter-driven reporter – cell-based, HeLa, luciferase, CREF/GAPDH counter-screen panel, dose response (AID 624167). Conditions: HeLa PEG-Prom luciferase reporter, overnight, CREF/GAPDH counter-screens. For orientation: The purpose of a counterscreen is to sort out artefacts and off-target activity.
The target of assay [2] is PEG-3 (UniProt Q6IN02). Described as above. Conditions: HeLa PEG-Prom luciferase reporter, overnight, CREF/GAPDH counter-screens, mean of runs. Background: A reporter such as luciferase makes a cellular process visible.
Where [3] appears, read: run 1, dose range 1, individual replicate IC50 per panel.
[4] abbreviates: run 2, dose range 1, individual replicate IC50 per panel.

PEG-3 (UniProt Q6IN02), sequence (Q6IN02 whole entry, looked up): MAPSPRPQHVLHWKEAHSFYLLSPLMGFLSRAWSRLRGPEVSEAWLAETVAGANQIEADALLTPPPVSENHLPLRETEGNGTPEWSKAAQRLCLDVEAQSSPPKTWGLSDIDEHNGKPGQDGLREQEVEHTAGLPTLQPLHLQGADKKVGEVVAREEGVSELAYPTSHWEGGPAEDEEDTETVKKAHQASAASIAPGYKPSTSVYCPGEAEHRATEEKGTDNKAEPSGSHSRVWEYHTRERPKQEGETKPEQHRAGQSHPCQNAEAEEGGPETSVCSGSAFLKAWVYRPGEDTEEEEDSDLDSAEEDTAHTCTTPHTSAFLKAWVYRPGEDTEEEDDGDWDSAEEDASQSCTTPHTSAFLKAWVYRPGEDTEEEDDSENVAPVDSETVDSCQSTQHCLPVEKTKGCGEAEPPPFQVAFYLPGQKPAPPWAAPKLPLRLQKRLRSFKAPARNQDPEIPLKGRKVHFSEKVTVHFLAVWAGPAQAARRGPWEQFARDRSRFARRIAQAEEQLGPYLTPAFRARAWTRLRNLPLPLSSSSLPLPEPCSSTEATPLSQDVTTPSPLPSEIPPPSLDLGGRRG

For `CC(=O)Nc1ccc(S(=O)(=O)N(Cc2cccnc2)Cc2cc3ccccc3[nH]c2=O)cc1`, the IC50 in the assay with PEG-3 [1] (setting [3]) was greater than 100 µM; with PEG-3 [1] (setting [4]) it was greater than 100 µM; on PEG-3 [2], > 100 µM (inactive).
In the case of `O=C1c2ccccc2S(=O)(=O)N1Cc1nc2ccccc2s1`, the IC50 in the assay with PEG-3 [1] (setting [3]) was 8.32 µM; in the assay with PEG-3 [1] (setting [4]), 14.3 µM; at PEG-3 [2], 11.3 µM.
For `Cc1cccc2c1-c1sc(C(=O)NCCCN3CCCC(C)C3)cc1CO2` (stereo not given) the same measures were 17.5 µM, 13.7 µM and 15.6 µM.
Regarding `CS(=O)(=O)c1ccc2nc(NC(=O)CCS(=O)(=O)c3ccccc3)sc2c1`, the figures for the IC50 in the assay on PEG-3 [1] (setting [3]) and with PEG-3 [1] (setting [4]) were greater than 100 µM and 18.9 µM, respectively. In addition, the IC50 result at PEG-3 [2] is “inactive”.
Regarding `Cc1ccc(C2(CCNCc3ccc(N(C)C)cc3)CCOC(C(C)C)C2)cc1` (stereo not given), the figures for the half-inhibitory concentration (IC50) in the assay on PEG-3 [1] (setting [3]) and in the assay with PEG-3 [1] (setting [4]) were 25.9 µM and 21.3 µM, respectively. Further, the IC50 entry at PEG-3 [2] was “inactive”.
For `CC(C)(C)OC(=O)CC(S(=O)(=O)c1ccccc1)S(=O)(=O)c1ccccc1` the same measures were 21 µM, 7.58 µM and 14.3 µM.
For `CN(C)CCNc1ccc2nnn3c4ccc(O)cc4c(=O)c1c23` the same measures were 45.4 µM, 43 µM and “inactive”.
Consider `O=C(C(=O)N(Cc1ccccc1)Cc1ccccc1)c1c(-c2ccccc2)[nH]c2ccccc12`, for which the IC50 was greater than 100 µM in the assay on PEG-3 [1] (setting [3]) and 7.5 µM in the assay with PEG-3 [1] (setting [4]). Besides, the IC50 entry on PEG-3 [2] was “inactive”.
In the case of `CC(NC(=O)c1ccc([N+](=O)[O-])o1)C12CC3CC(CC(C3)C1)C2` (stereo not given), the concentration for half-maximal inhibition (IC50) in the assay on PEG-3 [1] (setting [3]) came to 32.3 µM; with PEG-3 [1] (setting [4]), 14.9 µM. Besides, the IC50 entry on PEG-3 [2] was “inactive”.
As to `COc1ccc(-c2ccc3[nH]c4c(c3c2)CCN2C[C@@H]([C@H](C)O)[C@@H](N(C)C(=O)Nc3cc(Cl)cc(Cl)c3)C[C@@H]42)cc1`, the IC50 was determined as 43.8 µM with PEG-3 [1] (setting [3]) and 30.8 µM in the assay with PEG-3 [1] (setting [4]). The IC50 entry on PEG-3 [2] is “inactive”.
As for `O=Cc1cn(Cc2ccc([N+](=O)[O-])cc2)c2ccccc12`, the values for the IC50 in the assay with PEG-3 [1] (setting [3]), in the assay with PEG-3 [1] (setting [4]) and on PEG-3 [2] were greater than 100 µM, greater than 100 µM and > 100 µM (inactive), respectively.
With `Cc1ccc2sc(N(CCCN(C)C)C(=O)c3ccc(S(=O)(=O)N(C)C4CCCCC4)cc3)nc2c1C`, the IC50 in the assay on PEG-3 [1] (setting [3]) is 20.7 µM; in the assay with PEG-3 [1] (setting [4]), 13.7 µM; at PEG-3 [2], 17.2 µM.
For `Cc1nc(N2CCN(c3ccccc3O)CC2)c2c(-c3ccccc3)csc2n1` the same measures were 29 µM, 24.6 µM and “inactive”.
For `CCN1CCCC1CN(Cc1cc2ccc(C)cc2[nH]c1=O)C(=S)Nc1ccc(OC)cc1` (stereo not given) the same measures were 42 µM, 37.5 µM and “inactive”.
With `COc1cccc2sc(N(CCCN(C)C)C(=O)C(c3ccccc3)c3ccccc3)nc12`, the concentration for half-maximal inhibition (IC50) in the assay on PEG-3 [1] (setting [3]), in the assay with PEG-3 [1] (setting [4]) and at PEG-3 [2] was 18.2 µM each time.
Turning to `COCC(C)n1c(C)cc(C(=O)COC(=O)c2cccn2C)c1C` (stereo not given), the values for the IC50 in the assay with PEG-3 [1] (setting [3]) and with PEG-3 [1] (setting [4]) were 32.8 µM and greater than 100 µM, respectively. The IC50 entry at PEG-3 [2] is “inactive”.
Consider `CCN(c1ccccc1)S(=O)(=O)c1ccc(C(=O)N(CCCN(C)C)c2nc3cc4c(cc3s2)OCO4)cc1`, for which the concentration for half-maximal inhibition (IC50) in the assay with PEG-3 [1] (setting [3]) amounted to 23.6 µM; with PEG-3 [1] (setting [4]), 19.7 µM. The IC50 entry at PEG-3 [2] is “inactive”.
For `CCN1CCN(c2nc(Nc3cc(OC)ccc3OC)nc(Nc3cc(OC)ccc3OC)n2)CC1` the same measures were 17 µM, 18.1 µM and 17.5 µM.
For `Cc1cc(C(=O)COC(=O)c2ccccc2Br)c(C)n1CC1CCCO1` (stereo not given) the same measures were 3.07 µM, 98.5 µM and “inactive”.
With `O=C(C[C@H]1C[C@H](C(=O)N2CCCCC2)[C@@]2(CCc3ccccc3)c3[nH]c4ccc(Cl)cc4c3CCN2C1=O)NCCc1ccccn1`, the IC50 with PEG-3 [1] (setting [3]) came to 17.8 µM; in the assay on PEG-3 [1] (setting [4]), 25.7 µM. For the same compound, the IC50 result at PEG-3 [2] is “inactive”.
As for `C[C@@H]1[C@H]2[C@@H]3CC[C@@H](C3)[C@H]2CN[C@H]1c1cn(Cc2ccccc2)c2ccccc12`, the 50% inhibitory concentration (IC50) amounted to 39 µM with PEG-3 [1] (setting [3]) and 42.7 µM in the assay with PEG-3 [1] (setting [4]). The IC50 result on PEG-3 [2] is “inactive”.
As for `COc1ccc(CCNC(=O)c2cc3c(=O)n4ccccc4nc3n(C3CCCCC3)c2=N)cc1`, the IC50 with PEG-3 [1] (setting [3]) was greater than 100 µM; in the assay on PEG-3 [1] (setting [4]), greater than 100 µM; at PEG-3 [2], > 100 µM (inactive).
With `O=c1cc2oc3cc(O)c(O)cc3c(-c3ccccc3[N+](=O)[O-])c-2cc1O`, the IC50 in the assay with PEG-3 [1] (setting [3]) was 19 µM; in the assay with PEG-3 [1] (setting [4]), 19.1 µM; at PEG-3 [2], 19 µM.
With `CCc1nc(Sc2nnnn2-c2ccccc2)c2c3c(sc2n1)CCCC3`, the IC50 with PEG-3 [1] (setting [3]) was determined as 24.7 µM; with PEG-3 [1] (setting [4]) it was 16.3 µM. Besides, the IC50 entry on PEG-3 [2] is “inactive”.
`CC(C)CC1C(=O)N(Cc2cn(CCC3OCCO3)nn2)CCS(=O)(=O)N1Cc1ccc(-c2ccc(F)cc2)cc1` (stereo not given): the figures for the IC50 in the assay on PEG-3 [1] (setting [3]) and in the assay on PEG-3 [1] (setting [4]) were 31.3 µM and 33.2 µM, respectively. For the same compound, on PEG-3 [2], the IC50 result was “inactive”.

By IC50 is commonly meant the concentration at which inhibition is half-maximal.
